Common to all, as to assay: biochemical
Common to all, as to design: KINOMEscan scanMAX active site-directed competition binding assay, percent of control, 468 kinases
Details in all cases: competition binding, percent of control

One test has as its target SRPK1 (Homo sapiens, UniProt Q96SB4). An outline of the steps: (§1)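 Single-concentration screen (100 μM S-carvone) in a competition binding panel of 468 human kinases (KINOMEscan scanMAX); results given as percent of control, hit cutoff 35%.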
Another test concerns the target T1, TRKB (Homo sapiens, UniProt Q16620).
T1 construct: gene NTRK2
The method in brief: as §1

A further test has as its target TBK1 (Homo sapiens, UniProt Q9UHD2). The method in brief: as §1
The target in a further test is TNNI3K (Homo sapiens, UniProt Q59H18). The method in brief: as §1
The next test deals with T2, MEK2 (Homo sapiens, UniProt P36507).
T2 construct: gene MAP2K2
The method in brief: as §1

Another test has as its target FGR (Homo sapiens, UniProt P09769). An outline of the steps: as §1
Another test addresses GRK7 (Homo sapiens, UniProt Q8WTQ7). The method in brief: as §1
For another test, the target named is T3, TAK1 (Homo sapiens, UniProt O43318).
T3 construct: gene MAP3K7
The method in brief: as §1

Another test deals with RIOK1 (Homo sapiens, UniProt Q9BRS2). The method in brief:
as §1

In another test the target is ACVR2A (Homo sapiens, UniProt P27037). The method in brief:
as §1

Test [1] has as its target T4, JAK2(JH1domain-catalytic) (Homo sapiens, UniProt O60674).
T4 construct: JH1domain-catalytic
An outline of the steps: as §1

For the next test, the target named is MET (Homo sapiens, UniProt P08581). The method in brief: as §1
In the next test the target is PAK2 (Homo sapiens, UniProt Q13177). An outline of the steps: as §1
The target of another test is BRAF(V600E) (Homo sapiens, UniProt P15056, V600E). An outline of the steps:
as §1

For a further test, the target named is T5, DCAMKL3 (Homo sapiens, UniProt Q9C098).
T5 construct: gene DCLK3
The method in brief: as §1

The next test deals with FLT3(ITD,F691L) (Homo sapiens, UniProt P36888, F691L/ITD). An outline of the steps: as §1
A further test has as its target T6, PCTK3 (Homo sapiens, UniProt Q07002).
T6 construct: gene CDK18
The method in brief: as §1

The next test concerns the target CDK5 (Homo sapiens, UniProt Q00535). The method in brief: as §1
The target in another test is ULK1 (Homo sapiens, UniProt O75385). An outline of the steps: as §1
The target in a further test is T7, p38-beta (Homo sapiens, UniProt Q15759).
T7 construct: gene MAPK11
An outline of the steps:
as §1

Another test has as its target IRAK4 (Homo sapiens, UniProt Q9NWZ3). An outline of the steps:
as §1

SMILES strings stand for the structures.

Sequence of ULK1 (O75385 whole entry): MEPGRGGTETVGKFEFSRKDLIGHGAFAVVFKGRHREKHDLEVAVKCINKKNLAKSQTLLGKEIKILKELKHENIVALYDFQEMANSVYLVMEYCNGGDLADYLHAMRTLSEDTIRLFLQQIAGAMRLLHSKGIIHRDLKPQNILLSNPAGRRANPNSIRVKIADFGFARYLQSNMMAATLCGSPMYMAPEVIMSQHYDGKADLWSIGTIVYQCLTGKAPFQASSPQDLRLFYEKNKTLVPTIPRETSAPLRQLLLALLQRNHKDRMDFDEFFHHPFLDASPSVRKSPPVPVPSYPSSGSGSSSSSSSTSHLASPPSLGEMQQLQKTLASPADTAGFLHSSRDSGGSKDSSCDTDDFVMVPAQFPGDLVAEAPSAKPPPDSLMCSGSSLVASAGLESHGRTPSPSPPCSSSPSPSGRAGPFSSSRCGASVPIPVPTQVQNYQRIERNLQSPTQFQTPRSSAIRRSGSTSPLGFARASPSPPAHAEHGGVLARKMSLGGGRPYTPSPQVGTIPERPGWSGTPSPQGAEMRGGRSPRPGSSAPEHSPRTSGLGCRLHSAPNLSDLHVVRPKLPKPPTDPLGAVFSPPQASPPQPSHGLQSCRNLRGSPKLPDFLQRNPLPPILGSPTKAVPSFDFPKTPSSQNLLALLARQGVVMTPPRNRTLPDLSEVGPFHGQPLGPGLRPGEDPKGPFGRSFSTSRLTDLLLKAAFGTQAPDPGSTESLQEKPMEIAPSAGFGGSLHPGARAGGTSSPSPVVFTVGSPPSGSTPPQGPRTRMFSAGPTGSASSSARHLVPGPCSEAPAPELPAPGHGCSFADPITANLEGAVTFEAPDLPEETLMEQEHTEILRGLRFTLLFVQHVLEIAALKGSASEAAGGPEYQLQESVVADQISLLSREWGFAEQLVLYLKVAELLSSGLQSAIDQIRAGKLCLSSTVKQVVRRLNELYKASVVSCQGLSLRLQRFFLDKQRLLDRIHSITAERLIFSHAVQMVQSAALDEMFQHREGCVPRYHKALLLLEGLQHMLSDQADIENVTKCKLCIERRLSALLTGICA
Sequence of GRK7 (Q8WTQ7 whole entry): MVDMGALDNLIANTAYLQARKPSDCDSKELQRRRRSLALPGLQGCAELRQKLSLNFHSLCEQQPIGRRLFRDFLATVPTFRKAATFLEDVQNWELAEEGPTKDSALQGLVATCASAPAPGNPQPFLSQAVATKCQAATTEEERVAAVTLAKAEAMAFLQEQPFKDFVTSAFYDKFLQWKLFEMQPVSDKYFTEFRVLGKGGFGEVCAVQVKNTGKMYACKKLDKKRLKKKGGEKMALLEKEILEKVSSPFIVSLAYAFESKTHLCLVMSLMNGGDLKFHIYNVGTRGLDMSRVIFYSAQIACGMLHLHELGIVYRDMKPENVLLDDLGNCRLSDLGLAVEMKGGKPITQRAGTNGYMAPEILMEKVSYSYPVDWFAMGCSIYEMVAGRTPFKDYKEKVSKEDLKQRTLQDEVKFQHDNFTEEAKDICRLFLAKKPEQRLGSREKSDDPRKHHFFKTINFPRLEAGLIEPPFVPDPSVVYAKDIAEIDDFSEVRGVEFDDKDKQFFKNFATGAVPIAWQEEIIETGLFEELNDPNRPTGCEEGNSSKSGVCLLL
Sequence of FLT3(ITD,F691L) (P36888 564-993 F691L): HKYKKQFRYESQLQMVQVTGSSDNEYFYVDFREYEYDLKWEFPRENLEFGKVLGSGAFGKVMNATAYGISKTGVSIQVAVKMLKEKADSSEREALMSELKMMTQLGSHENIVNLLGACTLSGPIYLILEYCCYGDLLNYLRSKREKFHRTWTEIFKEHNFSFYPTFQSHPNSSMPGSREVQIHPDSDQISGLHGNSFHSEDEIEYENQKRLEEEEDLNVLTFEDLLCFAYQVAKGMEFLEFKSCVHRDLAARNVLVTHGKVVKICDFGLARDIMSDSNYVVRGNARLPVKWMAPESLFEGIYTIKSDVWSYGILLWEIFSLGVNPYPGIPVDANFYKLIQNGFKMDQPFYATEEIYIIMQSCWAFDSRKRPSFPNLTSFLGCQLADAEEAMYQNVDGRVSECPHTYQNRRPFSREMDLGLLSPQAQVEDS
T1 sequence (Q16620 whole entry): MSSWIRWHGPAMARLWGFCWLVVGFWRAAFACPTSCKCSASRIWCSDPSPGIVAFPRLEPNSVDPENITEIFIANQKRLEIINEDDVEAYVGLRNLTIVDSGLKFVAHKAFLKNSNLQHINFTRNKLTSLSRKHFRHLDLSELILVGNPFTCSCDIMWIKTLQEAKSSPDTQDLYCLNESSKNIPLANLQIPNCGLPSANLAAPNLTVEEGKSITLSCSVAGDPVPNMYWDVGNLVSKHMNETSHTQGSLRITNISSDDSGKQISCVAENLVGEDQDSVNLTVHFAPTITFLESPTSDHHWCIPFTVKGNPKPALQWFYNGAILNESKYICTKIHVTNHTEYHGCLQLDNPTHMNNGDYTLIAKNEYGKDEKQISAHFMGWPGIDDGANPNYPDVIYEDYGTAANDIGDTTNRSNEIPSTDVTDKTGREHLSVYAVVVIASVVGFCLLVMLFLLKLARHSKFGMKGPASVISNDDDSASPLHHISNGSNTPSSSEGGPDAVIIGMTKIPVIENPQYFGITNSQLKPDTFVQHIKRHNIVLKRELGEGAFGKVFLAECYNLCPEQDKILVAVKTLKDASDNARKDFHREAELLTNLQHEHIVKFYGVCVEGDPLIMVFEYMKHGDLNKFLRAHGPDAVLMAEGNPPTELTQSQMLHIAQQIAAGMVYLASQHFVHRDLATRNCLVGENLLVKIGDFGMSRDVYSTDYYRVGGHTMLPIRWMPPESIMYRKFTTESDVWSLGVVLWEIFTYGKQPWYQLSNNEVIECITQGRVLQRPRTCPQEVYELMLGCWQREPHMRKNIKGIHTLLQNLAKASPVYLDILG
T5 sequence (Q9C098 whole entry): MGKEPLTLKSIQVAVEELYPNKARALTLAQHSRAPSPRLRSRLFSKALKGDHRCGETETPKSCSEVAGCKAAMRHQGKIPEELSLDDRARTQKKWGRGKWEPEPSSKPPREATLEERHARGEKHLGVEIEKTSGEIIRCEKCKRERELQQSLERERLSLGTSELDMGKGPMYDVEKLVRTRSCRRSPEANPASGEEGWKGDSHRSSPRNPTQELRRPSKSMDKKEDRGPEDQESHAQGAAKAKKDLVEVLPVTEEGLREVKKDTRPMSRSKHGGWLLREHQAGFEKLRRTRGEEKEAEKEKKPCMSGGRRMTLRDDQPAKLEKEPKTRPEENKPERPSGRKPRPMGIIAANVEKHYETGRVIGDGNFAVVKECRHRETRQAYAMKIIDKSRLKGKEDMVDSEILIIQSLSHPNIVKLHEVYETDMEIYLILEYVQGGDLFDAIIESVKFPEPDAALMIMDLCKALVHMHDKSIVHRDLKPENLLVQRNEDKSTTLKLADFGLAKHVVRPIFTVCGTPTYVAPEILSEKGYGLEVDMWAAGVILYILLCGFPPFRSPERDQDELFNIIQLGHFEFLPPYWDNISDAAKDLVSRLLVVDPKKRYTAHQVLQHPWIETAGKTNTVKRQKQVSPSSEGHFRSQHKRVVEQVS
Sequence of MET (P08581 whole entry): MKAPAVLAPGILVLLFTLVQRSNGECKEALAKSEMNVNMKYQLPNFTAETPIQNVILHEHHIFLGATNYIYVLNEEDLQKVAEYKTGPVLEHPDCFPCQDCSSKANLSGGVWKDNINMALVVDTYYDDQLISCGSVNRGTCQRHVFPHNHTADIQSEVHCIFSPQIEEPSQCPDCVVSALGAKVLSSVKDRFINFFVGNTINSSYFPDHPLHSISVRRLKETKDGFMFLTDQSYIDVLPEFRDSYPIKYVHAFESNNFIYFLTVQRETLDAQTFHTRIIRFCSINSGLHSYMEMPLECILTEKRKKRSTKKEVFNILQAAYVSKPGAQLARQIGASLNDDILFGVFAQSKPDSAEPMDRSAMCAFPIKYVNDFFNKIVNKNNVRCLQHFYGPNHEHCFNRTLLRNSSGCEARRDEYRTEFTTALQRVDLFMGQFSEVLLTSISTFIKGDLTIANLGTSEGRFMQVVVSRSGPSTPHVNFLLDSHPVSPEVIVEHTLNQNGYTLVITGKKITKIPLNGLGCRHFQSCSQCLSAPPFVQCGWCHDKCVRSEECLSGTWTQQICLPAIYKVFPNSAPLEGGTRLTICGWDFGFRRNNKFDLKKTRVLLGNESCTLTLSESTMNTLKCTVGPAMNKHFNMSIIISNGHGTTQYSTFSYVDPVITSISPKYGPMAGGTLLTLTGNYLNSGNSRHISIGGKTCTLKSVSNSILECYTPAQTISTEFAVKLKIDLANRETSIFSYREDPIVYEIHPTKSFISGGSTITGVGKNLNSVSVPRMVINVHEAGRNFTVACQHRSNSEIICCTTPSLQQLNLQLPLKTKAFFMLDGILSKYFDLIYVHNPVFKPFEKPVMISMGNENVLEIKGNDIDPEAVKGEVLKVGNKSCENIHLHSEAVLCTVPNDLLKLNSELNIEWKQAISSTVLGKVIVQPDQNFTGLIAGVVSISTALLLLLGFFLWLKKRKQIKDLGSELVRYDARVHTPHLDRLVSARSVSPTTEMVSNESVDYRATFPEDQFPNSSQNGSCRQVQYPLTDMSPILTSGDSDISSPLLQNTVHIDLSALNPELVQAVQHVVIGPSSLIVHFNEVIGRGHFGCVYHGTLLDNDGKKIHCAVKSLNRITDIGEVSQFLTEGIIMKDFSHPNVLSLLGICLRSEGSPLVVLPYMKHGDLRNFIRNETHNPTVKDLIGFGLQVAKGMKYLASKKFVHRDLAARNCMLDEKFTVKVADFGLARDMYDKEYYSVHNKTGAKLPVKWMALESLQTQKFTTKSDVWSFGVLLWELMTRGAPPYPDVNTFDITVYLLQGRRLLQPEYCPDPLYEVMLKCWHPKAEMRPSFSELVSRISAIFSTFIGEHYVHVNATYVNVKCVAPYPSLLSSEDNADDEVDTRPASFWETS

In the case of `C=C(C)[C@H]1CC=C(C)C(=O)C1` [S-carvone], the remaining binding at 100 µM at SRPK1 was determined as 77%; on TRKB it was 78%; at TBK1, 64%; on TNNI3K, 93%; on MEK2 it was 86%; on FGR, 57%. Moreover, the remaining binding at 100 µM is 75% at GRK7; 79% on TAK1; 100% at RIOK1; 90% at ACVR2A; 78% in [1]; 90% at MET. The remaining binding at 100 µM was found to be 98% at PAK2; 90% at BRAF(V600E); 75% at DCAMKL3; 71% on FLT3(ITD,F691L); 85% on PCTK3; 61% at CDK5. The remaining binding at 100 µM at ULK1 came to 100%; at p38-beta, 98%; at IRAK4, 68%.

The values above are taken from article PMC10174618, “Monoterpenoid aryl hydrocarbon receptor allosteric antagonists protect against ultraviolet skin damage in female mice” (Nature Communications, 2023).
